Data on 88 compounds can be found in a melting point compilation (Tetko et al.; mined from patent text by program, amines drawn as free bases though some values may be those of a salt).

Some results are limits rather than exact numbers.

For `O=c1c(Nc2cccc(C(F)(F)F)c2)c(Nc2ccc(Br)cc2-c2nnn[nH]2)c1=O`, the melting point fell in the range of 150 to 165 °C.

Regarding `Nc1nc(F)nc2c1ncn2C1OC(COCc2ccccc2)C(OCc2ccccc2)C1OCc1ccccc1` (stereo not drawn), the melting point is 157 to 159 °C. Under `Clc1ccccc1Cc1nc2cccc(CCc3nccs3)c2o1` stands 64 to 66 °C; under `CCCCCCCCC(C(=O)O)C(O)(CC(=O)O)C(=O)O` (stereo not drawn), 65.8 to 66.7 °C. The result for `COc1cccc(CNC(=O)c2ccc(CCl)cc2)c1` reads 108 to 110 °C; that for `CN(C)C=CC(=O)c1ccsc1`, 89 to 90 °C. Regarding `C=Cc1ccc2c(n1)COC(c1ccccc1)O2` (stereo not drawn), the melting point is 54 to 57 °C. The result for `CN(CCOc1ccc2ccc(N)nc2n1)C(=O)OC(C)(C)C` reads 170 °C; that for `O=C(c1ncc[nH]1)C1CCN(Cc2ccccc2)CC1`, 121 °C; that for `COC(=O)c1cncc(O)c1C(=O)OC`, 136 to 137 °C. Under `O=S(=O)(CCCl)CCC(F)(F)C(F)(F)C(F)(F)C(F)(F)C(F)(F)C(F)(F)C(F)(F)C(F)(F)C(F)(F)C(F)(F)F` stands 147 to 148 °C; under `COc1ccc(-c2ccc3cnc(Nc4ccc(C5CCN(CC(N)=O)CC5)cc4)nn23)cn1`, 217 °C. `O=C(NCCCCN1CCC(c2c[nH]c3ccccc23)CC1)c1ccc(-c2ccc(C(F)(F)F)cc2)cc1CO` yielded a melting point of 255 °C.

`CCCCC[C@H](O)/C=C/[C@@H]1[C@H]2Cc3cccc(OC(C)=O)c3C[C@H]2C[C@H]1O` yielded a melting point of 54 to 65 °C. The result for `O=C(O)c1ccccc1C(=O)NCCc1cccnc1` reads 183 to 185 °C; that for `Cn1cc(-c2cccc(C(F)(F)F)c2)c(=O)c(-c2cccs2)c1`, 185 to 186 °C. `CCCOc1ccc(-c2ncccc2S(=O)(=O)Nc2ncc(C)nc2OC)cc1` showed a melting point of 134 to 135 °C.

In turn, `CSCC[C@@H]1C(=O)N(C)[C@H]([C@H](C)c2cccc3ccccc23)C(=O)N1C` had a melting point of 88 to 90 °C. With `O=[N+]([O-])N=C1SCCN1Cc1ccc(Cl)nc1`, the melting point lay within 137 to 138 °C. As to `O=C(O)c1cnn2c(C(F)(F)F)cc(-c3ccc(C(F)(F)F)c(Cl)c3)nc12`, the melting point amounted to 244 °C. Compound `c1ccc(-c2cc(-c3nc(-c4ccccc4)nc(-c4ccccc4)n3)c(-c3nccc4ccccc34)c(-c3cc4ccccc4c4ccccc34)c2)cc1` returned a melting point of 272 °C. Under `O=c1c(Br)c(OCc2ccccc2)ccn1CCc1ccsc1` stands 134 °C; under `C=C(C)c1ccc2c(c1)C(=O)c1ccccc1C2=O`, 126 °C. In the case of `CC(=O)N1CCN(c2ccc(-n3ccnc3)cc2)CC1`, the melting point lay within 181 to 182 °C. On to `CC(C)(C)c1cc(NC(=S)NCc2ccc(N)cc2)cc(C(C)(C)C)c1O`, for which the melting point was in the range of 167 to 169 °C. Under `CCc1c(-c2ccc(OCc3ccccc3)cc2)cn2cccc(OCc3ccccc3)c12` stands 104 to 105 °C; under `CCCn1c(=O)c(-c2ccccc2)c2n(c1=O)CCCS2`, 132 to 133 °C; under `CC(=O)Oc1c(C)c(C)c2c(c1C)CCC(C)(C=O)O2` (stereo not drawn), 88 to 90 °C.

The compound `Cc1oc(CCOc2ccc(CC3SC(=O)NC3=O)cn2)nc1Cc1ccccc1` (stereo not drawn) gave a melting point of 110 to 111 °C. Under `Cc1nc(C(CC(C)C)Nc2c(C#N)cnn3cccc23)sc1C` (stereo not drawn) stands 138 °C; under `Cc1oc(-c2ccco2)nc1COc1ccc(COc2nn(Cc3ccccc3)cc2C=O)cn1`, 104 to 105 °C. Under `COc1cc(C(=O)c2ncc3ccc(C(=O)O)cn23)ccc1N` stands 306 °C; under `CC(C)C(C(=O)O)N(C)C(=O)OC(C)(C)C` (stereo not drawn), 83 to 85 °C; under `CS(=O)(=O)c1ccc(-c2cnn(-c3cccc(Br)c3)c(=O)c2-c2ccc(F)cc2)cc1`, 210 to 212 °C. Under `Cc1ccc2c3c(ccc2n1)OCC(CNCC1CCc2[nH]c4cc(Cl)c(F)cc4c2C1)O3` (stereo not drawn) stands 243 to 244 °C.

As for `Brc1cnc2c(c1)ncn2-c1cccc(-c2cccnc2)c1`, the melting point lay in the range of 212 to 213 °C. Under `COc1ccc2nc(N)nc(C3CCN(C(=O)c4ccccc4)CC3)c2c1` stands 172 to 173 °C.

With `COc1ccc(C2(O)C=CC=CC2CCc2c(Cl)cncc2Cl)cc1OC1CCCC1` (stereo not drawn), the melting point was 129 to 130 °C. Under `N#CCc1cccc2c(-c3ccc(F)cc3)nccc12` stands 136 °C.

As to `Fc1ccc(-c2cc(Cl)c3ccccc3n2)cc1`, the melting point was 90 to 93 °C. The result for `CS(=O)(=O)c1ccc(C2=C(c3ccc(-c4cscn4)cc3)C(=O)OC2)cc1` reads 237 °C; that for `O=P(O)(O)CN(CP(=O)(O)O)c1ccccc1`, 130 to 131 °C; that for `CNC1(C)CN(c2cc3c(cc2F)c(=O)c(C(=O)O)cn3C2CC2)C1`, greater than 300 °C. The result for `CCOC(=O)C(C#N)=C1CC(C)(C)c2cc(OC)c(OC)cc21` reads 148 to 149 °C. `O=C(O)CON=C(c1ccc(Cl)cc1)c1ccc(Cl)cc1` came in with a melting point of 147 to 148 °C. `Cc1cc(Cl)c(O)cc1N` gave a melting point of 144 °C.

`CC(=O)Nc1cnc2ccsc2c1` showed a melting point of 192 to 194 °C.

As to `CCCNC(=O)C1(CCCCSc2nc3ccc(OCC)cc3s2)c2ccccc2-c2ccccc21`, the melting point was in the range of 112 to 114 °C. The result for `Cc1ccc2cc(CC(=O)O)c(=O)[nH]c2n1` reads greater than 250 °C; that for `CC(=O)OCC(=O)C1(OC(=O)c2ccccc2)CCC2C3CC(C)C4=CC(=O)CCC4(C)C3C(O)CC21C` (stereo not drawn), 210 °C; that for `COC(=O)CC(CC(=O)OC)Sc1cc(OC)cc(OC)c1`, 98 to 99 °C. The result for `O=c1oc2c(c(O)c1C(c1cc(NS(=O)(=O)c3cccc4cccnc34)cc(NS(=O)(=O)c3cccc4cccnc34)c1)C1CC1)CCCCCC2` (stereo not drawn) reads 139 to 145 °C. The compound `NC(=O)COc1ccc([N+](=O)[O-])cc1` displayed a melting point of 153 to 155 °C. The result for `C=Cc1cccc(N2CC(CNC(=O)OC(C)(C)C)C2)n1` reads 85 to 87 °C. The result for `CCCCCCCCCCCCCCCCCCOc1cn(C)c(CNCCCO)cc1=O` reads 79 to 82 °C; that for `COc1cccc(OC)c1S(=O)(=O)OCC(=NNc1ccccc1)c1ccccc1`, 168 °C; that for `CC1=Nc2ccc(CO)cc2C(=O)C1`, 249 to 252 °C. The result for `CCCOc1nc2ccccc2c2c1CNC2=O` reads 170 to 171 °C; that for `CCc1cc2c(cc1CC)C(=CC#N)OC2=O`, 147 to 158 °C. Turning to `CCCCNc1nnc(NCCCC)c2cc3c(OC)cccc3cc12`, the melting point lay in the range of 178 to 180 °C. Under `Cn1ncc(/C=C/C(=O)Nc2ccc(CC(C)(C)C)cc2)c1-c1ccc(F)cc1` stands 150 to 151 °C; under `O=C(Nc1cc(Cl)cc(Cl)c1)Nc1ccc(Cl)cc1-c1nnn[nH]1`, 234 to 236 °C; under `FC(F)(F)c1cccc(-c2ccn3cnnc3n2)c1`, 202 to 203 °C. Under `CCn1ncc2cc3c(nc21)CCc1ccccc1C3(O)CCCN(C)C` (stereo not drawn) stands 100 to 102 °C.

The compound `CC(=O)c1ccc(O)c(-n2nc3ccccc3n2)c1` displayed a melting point of 147 °C.

For `CC(=O)Nc1ccc(F)c(F)c1F`, the melting point is 87 to 88 °C.

On to `O=C1NC(=O)c2ccccc2C1=CNc1ccc(-c2ccccc2)cc1`, for which the melting point was in the range of 261 to 262 °C. Compound `O=[N+]([O-])c1ccc(CN2CCN(CC(O)COc3cccc4[nH]c5ccccc5c34)CC2)o1` (stereo not drawn) had a melting point of 54 to 59 °C. The result for `CSCc1ccc(C(=O)c2ccc(Cl)cc2)cc1` reads 59 to 61 °C. In turn, `CC(=O)c1ccc(S(=O)(=O)Nc2nnn[nH]2)cc1` yielded a melting point of 150 to 151 °C.

In the case of `CN(Cc1ccccc1)C(=O)c1cc2ccccc2c(-c2ccccc2Cl)n1`, the melting point is 128 °C.

`CC(C)CCOC(=O)c1ccc2c(=O)c3ccccc3ccc2c1` returned a melting point of 26 to 30 °C. The result for `CCCc1sc(-c2nccs2)c2c1C(=O)CC(C)(C)C2` reads 69 to 72 °C; that for `Cc1cc(S(=O)(=O)Nc2cccnc2Nc2ccccc2)c(C)cc1Cl`, 153 to 154 °C. Under `CCCCc1cn(Cc2ccc(C(=O)O)cc2)c2ccccc2c1=O` stands 224 °C; under `CC(=O)OCCCc1cc2c(s1)-n1c(C)nnc1CN=C2c1ccccc1Cl`, 153 to 155 °C. Under `O=c1c2c(O)c(O)ccc2c2cc(O)c(O)cc2n1Cc1ccccc1` stands 224 to 225 °C; under `Cc1ccccc1C(=O)Nc1ccc(C(=O)N2CCCC(N)c3ccccc32)cc1` (stereo not drawn), 198 to 200 °C; under `Oc1ccc(C2=NCCO2)cc1`, 162 to 163 °C. `CCn1cc(C(=O)O)c(=O)c2cc(F)c(N3CCC(NS(=O)(=O)c4ccc(N)cc4)C3)c(F)c21` (stereo not drawn) had a melting point of 214 to 216 °C.

As for `CNC(=O)[C@@H](C[C@H](O)[C@H](CC1CCCCC1)NC(=O)[C@H](Cc1cscn1)NC(=O)[C@@H](CC(=O)N1CCOCC1)Cc1ccccc1)C(C)C`, the melting point fell in the range of 83 to 86 °C. `CC1CCCC(C)N1c1cc(F)cc(C(=O)Nc2ccc(OCCN3CCOCC3)c3ccccc23)c1` (stereo not drawn) yielded a melting point of 105 to 107 °C. Compound `NC(=O)c1cncn1C(c1ccccc1)c1ccccc1` registered a melting point of 153 °C. The result for `Cc1ccc(C2c3c(C)c(NCc4ccc(F)cc4)c(C)c(C)c3OC2(C)C)cc1` (stereo not drawn) reads 92 to 94 °C; that for `NS(=O)(=O)c1ccc(NC(=O)Nc2ccccc2)cc1`, 233 to 235 °C; that for `COc1cccc2c(C)c3n(c(=O)c12)CCCS3(=O)=O`, 198 to 199 °C. The result for `CN(O)C(=O)C(C)(C)Cc1ccc2c(c1)C(=O)c1ccccc1CO2` reads 192 to 194 °C; that for `CS(=O)(=O)c1ccc(-n2nc(C(F)(F)F)cc2-c2ccc(-c3ncco3)cc2)cc1F`, 140 to 142 °C.
